From US20180071317A1, “USE OF AGENTS THAT ALTER THE PERITUMORAL ENVIRONMENT FOR THE TREATMENT OF CANCER” (SERVICIO ANDALUZ DE SALUD, priority 2011, published 2018)

How the values were obtained:
[1] = system: tumors from the tumor cell lines of Table 9; assay: Mean tumor volume in nude mice injected subcutaneously with human tumor cells; settings: 30 mg/kg/day oral, 7 days
[2] = system: fibroblasts (PHF) co-cultured with tumor cells of human colon adenocarcinoma (SW-403); assay: Marker expression (IHC) in PHF co-cultured with SW-403 tumor cells; assay type: cell-based; settings: co-culture with SW-403; SP 1 μM + antagonist 1 μM; 48 h
Description: (§1) All cultures were maintained 48 hours, following which the same cells were included in paraffin blocks for subsequent analysis of the expression of different markers by immunohistochemistry (see Example 1). The primary antibodies used to perform immunohistochemical assays and their concentration are detailed in Example 2. All experiments were carried out sixfold. Analyzed markers in fibroblast cells (stromal cells) were: TGF-α, TGF-β1, TGF-β2, TGF-β3, SPARC, MMP-3, MMP-7, MMP-9, MMP-11, MMP-13 and MMP-14.

[3] = system: fibroblasts (PHF) co-cultured with tumor cells of human gastric adenocarcinoma (23132/87); assay: Marker expression (IHC) in PHF co-cultured with 23132/87 tumor cells; assay type: cell-based; settings: co-culture with 23132/87; SP 1 μM + antagonist 1 μM; 48 h;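 also: cultures grown in fresh plasma from a healthy human donor, values give the percentage of PHF fibroblasts positive for the marker, each experiment run in six replicates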
Description: as §1

[4] = system: fibroblasts of tumors produced by lung carcinoma non small cell human (HCC-44) cells; assay: Marker expression (IHC) in fibroblasts of tumor or peritumoral area, mouse model, HCC-44; assay type: in vivo; settings: HCC-44 tumors in mice, 30 mg/kg/day oral, 7 days
Description: The expression on fibroblast cells obtained in the animal model was analyzed by immunohistochemistry, of the above markers: TGF-α, TGF-β1, TGF-β2, TGF-β3, MMP-7, MMP-1 1, MMP-14MP-14. […] This process was realized in mice treated with non-peptide antagonists of NK1 receptor and in untreated animals (control).

[5] = system: leukocyte cells (mono and polymorphonuclear) in co-culture with cells isolated from primary human tumors; assay: Marker expression (IHC) in leukocytes co-cultured with primary human tumor cells (colon, pancreatic, lung carcinoma, glioma, melanoma); assay type: cell-based; settings: SP 1 μM + antagonist 1 μM;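 also: tumor cells and leukocytes came from the same patients, co-culture contents were paraffin-embedded for immunohistochemistry with antibodies to TGF-β2 or NF-kB, leukocytes cultured alone served as control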
Description: To check that the interaction of the human primary tumor cells with cells of the immune/inflammatory (mono and polymorphonuclear leukocytes) cells, stimulates the secretion of substances of importance for survival and tumor progression, cultures were carried out using sets of immune cells/inflammatory (mono and polymorphonuclear leukocytes) with tumor cells obtained directly from primary human tumors of the same patients.
The same method described in Example 7 and 9 was used to obtain tumor cells from primary human tumors. Similarly cultured immune cells/inflammatory (mono and polymorphonuclear leukocytes) were used as control and secondly, cultured tumor cells isolated from patients in the presence of immune cells/inflammatory (mono and polymorphonuclear leukocytes).
Then, paraffin blocks were prepared with the contents of each of the groups mentioned previously for expression studies using immunohistochemistry. On this occasion, in order to identify the secretion of substances with importance for the survival and progression of tumor the following markers were analyzed: TGF-β2 (SAB4502956) and NF-kB (SAB4501992) using specific antibodies against them. All antibodies used were rabbit polyclonal antibodies obtained from Sigma Aldrich and were used at a concentration of 1/1000. Immunohistochemical techniques were performed and evaluated as described in previous examples.

[6] = system: fibroblasts of tumors produced by human glioma tumor line (GAMG); assay: Marker expression (IHC) in fibroblasts of tumor or peritumoral area, mouse model, GAMG; assay type: in vivo; settings: GAMG tumors in mice, 30 mg/kg/day oral, 7 days
Description: In vitro tests conducted in Example 5 are now carried out in an experimental model in mice in vivo. […] Subsequently, the expression in fibroblasts tumoral and peritumoral area of molecular markers associated with progression and maintenance of tumors: TGF-α, TGF-β1, TGF-β2, TGF-β3, MMP-7, MMP-11, MMP-14 were analyzed by immunohistochemistry.
Were injected with 2×10^7 cells tumors (corresponding, in each case to each of the tumor types as specified in Table 9) in 200 of PBS subcutaneously μl. […] Mice were randomized into two groups when the tumors reached a volume of 75 mm^3 One group was treated with non-peptide receptor antagonists NK1 and the other with placebo 200μ1. […] Tumors and samples of non-neoplastic stromal areas remote from the tumor were halved, formalin fixed (4%) and then were included in paraffin blocks for analysis by immunohistochemistry.
The expression on fibroblast cells obtained in the animal model was analyzed by immunohistochemistry, of the above markers: TGF-α, TGF-β1, TGF-β2, TGF-β3, MMP-7, MMP-1 1, MMP-14MP-14. Tables 32 to 35 depict the type of label used and the average percentage of fibroblasts present in non-tumor areas, tumor and peritumoral (±SD) which were expressing the marker shown in each of the tumor types developed from of the different cell lines used. This process was realized in mice treated with non-peptide antagonists of NK1 receptor and in untreated animals (control).

[7] = system: macrophages in co-culture with cells isolated from primary human tumors; assay: Marker expression (IHC) in macrophages co-cultured with primary human tumor cells (colon, breast, ovarian, lung carcinoma, melanoma); assay type: cell-based; settings: SP 1 μM + antagonist 1 μM;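 also: macrophages came from pleural or peritoneal washings of the patient who also supplied the tumor cells, and both were co-cultured on fresh blood plasma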
Description: To check that the interaction of tumor cells obtained directly from primary human immune cell/inflammatory (macrophages) cells, obtained from the patient stimulate secretion of substances by these macrophages recognized as important in survival of both cell types and in the progression of tumor cells, co-cultures were performed on fresh blood plasma, immune cell/inflammatory (macrophages) with tumor cells derived from primary tumors. All obtained from the same patient, to build an experimental model similar to human physiology.
Macrophages were obtained from washing or pleural or peritoneal from the same patient from which the primary tumor cells were obtained in each case.

[8] = co-culture with cells isolated from colon carcinoma
[9] = co-culture with cells isolated from glioma
[10] = co-culture with cells isolated from lung carcinoma
[11] = co-culture with cells isolated from melanoma
[12] = co-culture with cells isolated from pancreatic carcinoma
[13] = co-culture with cells isolated from breast carcinoma
[14] = co-culture with cells isolated from ovarian carcinoma

SMILES: CC(=O)N1CCN([C@H]2CCN(C(=O)N(C)[C@H](C)c3cc(C(F)(F)F)cc(C(F)(F)F)c3)[C@@H](c3ccc(F)cc3C)C2)CC1 [Casopitant]
- Mean tumor volume ([1]; B lymphoblastic leukemia (peripheral human B lymphoblastoid cells) SD1): 109 ± 8
- Mean tumor volume ([1]; Carcinoma of human non-small cell lung COR-L23): 119 ± 5
- Mean tumor volume ([1]; Carcinoma of human non-small cell lung H-1963): 97 ± 3
- Mean tumor volume ([1]; Carcinoma of human non-small cell lung HCC-44): 101 ± 8
- Mean tumor volume ([1]; Carcinoma of human small cell lung H-209): 114 ± 7
- Mean tumor volume ([1]; Carcinoma of human urinary bladder 5637): 100 ± 2
- Mean tumor volume ([1]; Human B lymphoma BC-1): 83 ± 11
- Mean tumor volume ([1]; Human Burkitt lymphoma CA-46): 94 ± 9
- Mean tumor volume ([1]; Human Fibrosarcoma HT-1080): 89 ± 4
- Mean tumor volume ([1]; Human Hodgkin lymphoma KM-H2): 86 ± 7
- Mean tumor volume ([1]; Human Rhabdomyosarcoma A-204): 98 ± 5
- Mean tumor volume ([1]; Human T-cell leukemia/NK YT): 102 ± 7
- Mean tumor volume ([1]; Human T-lymphoma DERL human Hodgkin 7Linfoma KM-H2): 97 ± 6
- Mean tumor volume ([1]; Human breast adenocarcinoma humano MCF-7): 86 ± 8
- Mean tumor volume ([1]; Human breast carcinoma MDA-MB-468): 77 ± 9
- Mean tumor volume ([1]; Human breast carcinoma MT-3): 87 ± 12
- Mean tumor volume ([1]; Human choriocarcinoma AC-1M32): 84 ± 1
- Mean tumor volume ([1]; Human colon carcinoma SW-403): 78 ± 7
- Mean tumor volume ([1]; Human endometrial carcinoma AN3-CA): 82 ± 3
- Mean tumor volume ([1]; Human endometrial stromal sarcoma ESS-1): 101 ± 5
- Mean tumor volume ([1]; Human folicular thyroid carcinoma TT2609-C02): 112 ± 5
- Mean tumor volume ([1]; Human gastric adenocarcinoma 23132/87): 83 ± 4
- Mean tumor volume ([1]; Human glioma GAMG): 102 ± 4
- Mean tumor volume ([1]; Human lung carcinoma A-427): 102 ± 8
- Mean tumor volume ([1]; Human lung carcinoma DV-90): 99 ± 5
- Mean tumor volume ([1]; Human lymphoblastic leukemia T BE-13): 101 ± 4
- Mean tumor volume ([1]; Human malignant fibrous histiocytoma U-2197): 107 ± 2
- Mean tumor volume ([1]; Human melanoma MEL HO): 102 ± 9
- Mean tumor volume ([1]; Human multiple myeloma COLO-677): 104 ± 6
- Mean tumor volume ([1]; Human neuroblastoma KELLY): 112 ± 5
- Mean tumor volume ([1]; Human neuroblastoma bone marrow SKN-BE 2): 103 ± 4
- Mean tumor volume ([1]; Human osteosarcoma CAL-72): 106 ± 7
- Mean tumor volume ([1]; Human ovarian adenocarcinoma EFO-27): 88 ± 6
- Mean tumor volume ([1]; Human ovarian carcinoma COLO-704): 97 ± 6
- Mean tumor volume ([1]; Human pancretic adenocarcinoma CAPAN-1): 73 ± 8
- Mean tumor volume ([1]; Human pancretic adenocarcinoma PA-TU 8902): 75 ± 6
- Mean tumor volume ([1]; Human papillary thyroid carcinoma metastasizing B-CPAP): 106 ± 4
- Mean tumor volume ([1]; Human prostate carcinoma 22RV1): 98 ± 4
- Mean tumor volume ([1]; Human retinoblastoma WERI-Rb-1): 101 ± 5
- Mean tumor volume ([1]; Human thyroid carcinoma 8505C): 99 ± 9
- Mean tumor volume ([1]; Human uterine cervix carcinoma KB): 112 ± 1
- Mean tumor volume ([1]; Melanoma humano, metástasis en ganglio linfático COLO 858): 99 ± 5
- Mean tumor volume ([1]; Sarcoma human Edwing MHH-ES-1): 97 ± 9
- Mean tumor volume ([1]; Transitional Carcinoma of human urinary bladder RT-4): 101 ± 3
- PHF cells expressing MMP-3 [2]: 0%
- PHF cells expressing MMP-7 [2]: 0%
- PHF cells expressing MMP-9 [2]: 0%
- PHF cells expressing MMP-11 [2]: 0%
- PHF cells expressing MMP-13 [2]: 0%
- PHF cells expressing MMP-14 [2]: 0%
- PHF cells expressing SPARC [2]: 0%
- PHF cells expressing TGF-α [2]: 0%
- PHF cells expressing TGF-β1 [2]: 0%
- PHF cells expressing TGF-β2 [2]: 0%
- PHF cells expressing TGF-β3 [2]: 0%
- PHF cells expressing MMP-3 [3]: 0%
- PHF cells expressing MMP-7 [3]: 0%
- PHF cells expressing MMP-9 [3]: 0%
- PHF cells expressing MMP-11 [3]: 0%
- PHF cells expressing MMP-13 [3]: 0%
- PHF cells expressing MMP-14 [3]: 0%
- PHF cells expressing SPARC [3]: 0%
- PHF cells expressing TGF-α [3]: 0%
- PHF cells expressing TGF-β1 [3]: 0%
- PHF cells expressing TGF-β2 [3]: 0%
- PHF cells expressing TGF-β3 [3]: 0%
- fibroblasts expressing MMP-7 [4]: 0%
- fibroblasts expressing MMP-11 [4]: 0%
- fibroblasts expressing MMP-14 [4]: 0%
- fibroblasts expressing TGF-α [4]: 0%
- fibroblasts expressing TGF-β 1 [4]: 0%
- fibroblasts expressing TGF-β 2 [4]: 0%
- fibroblasts expressing TGF-β 3 [4]: 0%
- Percentage of mononuclear leukocytes cells which expressed NF-kB [5, 8]: 0%
- Percentage of mononuclear leukocytes cells which expressed TGF-β [5, 8]: 0%
- Percentage of polymorphonuclear leukocytes cells which expressed NF-kB [5, 8]: 0%
- Percentage of polymorphonuclear leukocytes cells which expressed TGF-β [5, 8]: 0%
- Percentage of mononuclear leukocytes cells expressing NF-kB [5, 9]: 0%
- Percentage of mononuclear leukocytes cells expressing TGF-β [5, 9]: 0%
- Percentage of polymorphonuclear leukocytes cells expressing NF-kB [5, 9]: 0%
- Percentage of polymorphonuclear leukocytes cells expressing TGF-β [5, 9]: 0%
- Percentage of mononuclear leukocytes cells which expressed NF-kB [5, 10]: 0%
- Percentage of mononuclear leukocytes cells which expressed TGF-β [5, 10]: 0%
- Percentage of polymorphonuclear leukocytes cells which expressed NF-kB [5, 10]: 0%
- Percentage of polymorphonuclear leukocytes cells which expressed TGF-β [5, 10]: 0%
- Percentage of mononuclear leukocytes cells which expressed NF-kB [5, 11]: 0%
- Percentage of mononuclear leukocytes cells which expressed TGF-β [5, 11]: 0%
- Percentage of polymorphonuclear leukocytes cells which expressed NF-kB [5, 11]: 0%
- Percentage of polymorphonuclear leukocytes cells which expressed TGF-β [5, 11]: 0%
- Percentage of mononuclear leukocytes cells which expressed NF-kB [5, 12]: 0%
- Percentage of mononuclear leukocytes cells which expressed TGF-β [5, 12]: 0%
- Percentage of polymorphonuclear leukocytes cells which expressed NF-kB [5, 12]: 0%
- Percentage of polymorphonuclear leukocytes cells which expressed TGF-β [5, 12]: 0%
- fibroblasts expressing MMP-7 [6]: 0%
- fibroblasts expressing MMP-11 [6]: 0%
- fibroblasts expressing MMP-14 [6]: 0%
- fibroblasts expressing TGF-α [6]: 0%
- fibroblasts expressing TGF-β 1 [6]: 0%
- fibroblasts expressing TGF-β 2 [6]: 0%
- fibroblasts expressing TGF-β 3 [6]: 0%
- Percentage of macrophages which expressed EGF [7, 13]: 0%
- Percentage of macrophages which expressed MMP-9 [7, 13]: 0%
- Percentage of macrophages which expressed VEGF [7, 13]: 0%
- Percentage of macrophages which expressed EGF [7, 8]: 0%
- Percentage of macrophages which expressed MMP-9 [7, 8]: 0%
- Percentage of macrophages which expressed VEGF [7, 8]: 0%
- Percentage of macrophages which expressed EGF [7, 10]: 0%
- Percentage of macrophages which expressed MMP-9 [7, 10]: 0%
- Percentage of macrophages which expressed VEGF [7, 10]: 0%
- Percentage of macrophages which expressed EGF [7, 11]: 0%
- Percentage of macrophages which expressed MMP-9 [7, 11]: 0%
- Percentage of macrophages which expressed VEGF [7, 11]: 0%
- Percentage of macrophages which expressed EGF [7, 14]: 0%
- Percentage of macrophages which expressed MMP-9 [7, 14]: 0%
- Percentage of macrophages which expressed VEGF [7, 14]: 0%
